Measured values reported in patent publication US20040110802A1, “Antibacterial benzoic acid derivatives” (priority 2002, published 2004).
In brackets after ≈: the same amount, converted by molar mass.

These molecules were tested on SAUR 9218 (assay: MIC Test Method, standard agar dilution). Settings: agar dilution, Mueller Hinton agar, incubated overnight at 35° C.; lowest concentration that inhibits visible growth; read-out: SAUR 9218 MIC.
Type: cell-based
Procedure: The in vitro MiCs of test compounds were determined by a standard agar dilution method. A stock drug solution of each analog was prepared in the preferred solvent, usually DMSO:H2O (1:3). Serial 2-fold dilutions of each sample are made using 1.0 ml aliquots of sterile distil]ed water. To each 1.0 ml aliquot of drug was added 9 ml of molten Mueller Hinton agar medium. The drug-supplemented agar was mixed, poured into 15×100 mm petri dishes, and allowed to solidify and dry prior to inoculation.
Vials of each of the test organisms are maintained frozen in the vapor phase of a liquid nitrogen freezer. Test cultures are grown overnight at 35° C. on the medium appropriate for the organism. Colonies are harvested with a sterile swab, and cell suspensions are prepared in Trypticase Soy broth (TSB) to equal the turbidity of a 0.5 McFamland standard. A 1:20 dilution of each suspension was made in TSB. The plates containing the drug supplemented agar are inoculated with a 0.001 ml drop of the cell suspension using a Steers replicator, yielding approximately 10^4 to 10^5 cells per spot. The plates are incubated overnight at 35° C.
Following incubation the Minimum Inhibitory Concentration (MIC μg/ml), the lowest concentration of drug that inhibits visible growth of the organism, was read and recorded.
In the case of `O=C(Nc1ccc(Br)cc1C(=O)O)c1ncc(-c2ccccc2)o1`, the MIC is reported as 1 µg/mL (≈ 2.58 µM).
`O=C(COc1ccccc1-c1cc(C(=O)Nc2ccc(O)cc2C(=O)O)no1)c1ccccc1` showed an MIC of 0.5 µg/mL (≈ 1.09 µM).
Molecule `O=C(Nc1ccc(Cl)cc1C(=O)O)c1cc(-c2ccc(C(F)(F)F)cc2)on1` has an MIC of 0.5 µg/mL (≈ 1.22 µM).
`N#Cc1ccc(NC(=S)c2cc(-c3ccccc3F)on2)c(C(=O)O)c1` gave an MIC of 0.5 µg/mL (≈ 1.36 µM).
Molecule `CC(=O)Nc1ccc2cc(C(=O)Nc3ccc(C#N)cc3C(=O)O)n(C)c2c1` has an MIC of 1 µg/mL (≈ 2.66 µM).
`O=C(Nc1ccc(Cl)cc1C(=O)O)c1cc(-c2ccccc2NS(=O)(=O)c2ccc(OC(F)(F)F)cc2)on1` gave an MIC of 8 µg/mL (≈ 13.7 µM).
`CCCCCC(=O)Nc1cccc2cc(C(=O)Nc3ccc(C#N)cc3C(=O)O)[nH]c12` was tested, and the MIC was 0.5 µg/mL (≈ 1.19 µM).
For `N#Cc1ccc(NC(=O)c2cc(-c3ccccc3F)on2)c(C(=O)O)c1`, the MIC was 0.125 µg/mL (≈ 0.356 µM).
For `N#Cc1ccc(NC(=O)c2cncc(-c3ccco3)c2)c(C(=O)O)c1`, the MIC was 4 µg/mL (≈ 12 µM).
`Cc1oc(C(=O)Nc2ccc(C#N)cc2C(=O)O)cc1S(=O)(=O)N1CCCC1CO` (centres unmarked) was tested, and the MIC was 8 µg/mL (≈ 18.5 µM).
`N#Cc1ccc(NC(=O)c2cc3cccc(NC(=O)c4ccno4)c3[nH]2)c(C(=O)O)c1` gave an MIC of 2 µg/mL (≈ 4.82 µM).
For `Cc1sc(C(=O)Nc2ccc(C#N)cc2C(=O)O)cc1S(=O)(=O)N1CC(C)CC(C)C1` (centres unmarked), the MIC was 16 µg/mL (≈ 34.7 µM).
Work on `CC(C)(C)CC(=O)Nc1cccc2cc(C(=O)Nc3ccc(C#N)cc3C(=O)O)[nH]c12` yielded an MIC of 2 µg/mL (≈ 4.78 µM).
In the case of `CS(=O)(=O)c1ccc(-c2ccc3onc(C(=O)Nc4ccc(C#N)cc4C(=O)O)c3c2)cc1`, the MIC is reported as 0.5 µg/mL (≈ 1.08 µM).
For `COCCOCCCSc1cnc(C(=O)Nc2ccc(Br)cc2C(=O)O)cn1`, the MIC was 2 µg/mL (≈ 4.25 µM).
`Cc1sc(C(=O)Nc2ccc(Br)cc2C(=O)O)cc1S(=O)(=O)Nc1ccc(Cl)cc1` showed an MIC of 4 µg/mL (≈ 7.55 µM).
`O=C(Nc1ccc(Cl)cc1C(=O)O)c1ncc(-c2ccccc2)o1` showed an MIC of 1 µg/mL (≈ 2.92 µM).
`N#Cc1ccc(NC(=O)c2cc(SCc3ccccc3)on2)c(C(=O)O)c1` gave an MIC of 0.125 µg/mL (≈ 0.329 µM).
Work on `Cc1ccccc1-c1cc(C(=O)Nc2ccc(I)cc2C(=O)O)no1` yielded an MIC of 0.5 µg/mL (≈ 1.12 µM).
`CCn1c(C(=O)Nc2ccc(C#N)cc2C(=O)O)cc2ccccc21` showed an MIC of 1 µg/mL (≈ 3 µM).
Work on `COCc1onc(C(=O)Nc2ccc(C#N)cc2C(=O)O)c1COC` yielded an MIC of 16 µg/mL (≈ 46.3 µM).
For `CCCCn1c(C(=O)Nc2ccc(Cl)cc2C(=O)O)cc2ccccc21`, the MIC was 4 µg/mL (≈ 10.8 µM).
In the case of `O=C(Nc1ccc(Br)cc1C(=O)O)c1cc(Cl)nc(Cl)c1`, the MIC is reported as 32 µg/mL (≈ 82 µM).
Molecule `N#Cc1ccc(NC(=O)c2coc(-c3ccccc3)n2)c(C(=O)O)c1` has an MIC of 64 µg/mL (≈ 192 µM).
For `Cn1c(C(=O)Nc2ccc(C#N)cc2C(=O)O)cc2cccc(OCc3ccco3)c21`, the MIC was 0.125 µg/mL (≈ 0.301 µM).
Work on `O=C(Nc1ccc(I)cc1C(=O)O)c1cc(-c2ccccc2F)on1` yielded an MIC of 0.5 µg/mL (≈ 1.11 µM).
With `CCS(=O)(=O)Nc1cccc2cc(C(=O)Nc3ccc(C#N)cc3C(=O)O)n(C)c12` the MIC was 0.5 µg/mL (≈ 1.17 µM).
In the case of `COCCNc1ccc2onc(C(=O)Nc3ccc(C#N)cc3C(=O)O)c2c1`, the MIC is reported as 1 µg/mL (≈ 2.63 µM).
Molecule `O=C(Nc1ccc(Br)cc1C(=O)O)c1cnc(/C=C/C2COC3(CCCCC3)O2)cn1` (centres unmarked) has an MIC of 8 µg/mL (≈ 16.4 µM).
Molecule `N#Cc1ccc(NC(=O)c2cc(CCl)on2)c(C(=O)O)c1` has an MIC of 4 µg/mL (≈ 13.1 µM).
`CCC(C)C(=O)Nc1cccc2cc(C(=O)Nc3ccc(C#N)cc3C(=O)O)[nH]c12` (centres unmarked) showed an MIC of 1 µg/mL (≈ 2.47 µM).
`N#Cc1ccc(NC(=O)c2cc3ccc(Cl)cc3[nH]2)c(C(=O)O)c1` was tested, and the MIC was 2 µg/mL (≈ 5.89 µM).
`N#Cc1ccc(NC(=O)c2cc3cccc(NC(=O)Cc4ccc5ccccc5c4)c3[nH]2)c(C(=O)O)c1` was tested, and the MIC was 0.25 µg/mL (≈ 0.512 µM).
`CCC(C(=O)Nc1cccc2cc(C(=O)Nc3ccc(C#N)cc3C(=O)O)[nH]c12)c1ccccc1` (centres unmarked) gave an MIC of 0.5 µg/mL (≈ 1.07 µM).
With `Cc1sc(C(=O)Nc2ccc(C#N)cc2C(=O)O)cc1S(=O)(=O)N1CCN(c2ccccn2)CC1` the MIC was 32 µg/mL (≈ 62.6 µM).
`O=C(Nc1ccc(Cl)cc1C(=O)O)c1cc2cccc(S(=O)(=O)c3ccccc3)c2[nH]1` gave an MIC of 0.125 µg/mL (≈ 0.275 µM).
In the case of `N#Cc1ccc(NC(=O)c2cc3cccc(NC(=O)c4cccc(F)c4)c3[nH]2)c(C(=O)O)c1`, the MIC is reported as 0.5 µg/mL (≈ 1.13 µM).
Molecule `N#Cc1ccc(NC(=O)c2cc(-c3ccccc3)nc3ccccc23)c(C(=O)O)c1` has an MIC of 16 µg/mL (≈ 40.7 µM).
With `CCCn1c(C(=O)Nc2ccc(Br)cc2C(=O)O)cc2ccccc21` the MIC was 4 µg/mL (≈ 9.97 µM).
For `O=C(Nc1ccc(Br)cc1C(=O)O)c1ccc(-c2ccc([N+](=O)[O-])cc2)o1`, the MIC was 64 µg/mL (≈ 148 µM).
For `Cn1c(C(=O)Nc2ccc(C#N)cc2C(=O)O)cc2cccc(OCC(O)COCCOc3ccccc3)c21` (centres unmarked), the MIC was 0.5 µg/mL (≈ 0.944 µM).
`N#Cc1ccc(NC(=O)c2cnccn2)c(C(=O)O)c1` gave an MIC of 128 µg/mL (≈ 477 µM).
`Cn1cccc1-c1cnc(C(=O)Nc2ccc(Br)cc2C(=O)O)o1` gave an MIC of 2 µg/mL (≈ 5.13 µM).
`N#Cc1ccc(NC(=O)c2cc3ccccc3o2)c(C(=O)O)c1` was tested, and the MIC was 2 µg/mL (≈ 6.53 µM).
Work on `CCCCCCCSc1ccc(C(=O)Nc2ccc(C#N)cc2C(=O)O)nn1` yielded an MIC of 0.015 µg/mL (≈ 0.0376 µM).
`N#Cc1ccc(NC(=O)c2cc3cccc(NC(=O)CC4CCCC4)c3[nH]2)c(C(=O)O)c1` showed an MIC of 1 µg/mL (≈ 2.32 µM).
`CSc1ncc(Cl)c(C(=O)Nc2ccc(Br)cc2C(=O)O)n1` was tested, and the MIC was > 128 µg/mL.
